Results reported in patent publication US4833242A, “Cephalosporin derivatives and salts thereof” (Daiichi Seiyaku Co., Ltd., priority 1984, dated 1989).
≈ marks a conversion by molar mass, not a printed value. Where a name gives a salt, the structure may show the parent alone.

Tests used:
E. coli, NIHJ = assay: Minimum Inhibitory Concentration, broth dilution method; type: cell-based; conditions: Escherichia coli, 10^6 cells/ml, 37° C., 18 hours
Protocol: (§1) |Minimum Inhibitory Concentration (MIC, μg/ml) |(Broth dilution method, inoculated amount: 10^6 cells/ml, incubated |at 37° C. for 18 hours)

Pr. vulgaris, 08601 = assay: as above; type: cell-based; conditions: Proteus vulgaris, 10^6 cells/ml, 37° C., 18 hours
Protocol: as §1

Ps. aeruginosa, 32104 = assay: as above; type: cell-based; conditions: Pseudomonas aeruginosa, 10^6 cells/ml, 37° C., 18 hours
Protocol: as §1

Ps. aeruginosa, 32121 = assay: as above; type: cell-based; conditions: Pseudomonas aeruginosa, 10^6 cells/ml, 37° C., 18 hours
Protocol: as §1

Ps. aeruginosa, 32234 = assay: as above; type: cell-based; conditions: Pseudomonas aeruginosa, 10^6 cells/ml, 37° C., 18 hours
Protocol: as §1

Ps. putida, IID 5121 = assay: as above; type: cell-based; conditions: Pseudomonas putida, IID5121, 10^6 cells/ml, 37° C., 18 hours
Protocol: as §1

S. aureus, 209P = assay: as above; type: cell-based; conditions: Staphylococcus aureus, 10^6 cells/ml, 37° C., 18 hours
Protocol: as §1

Ser. marcescens, 10104 = assay: as above; type: cell-based; conditions: Serratia marcescens, 10^6 cells/ml, 37° C., 18 hours
Protocol: as §1

[1] = acute toxicity, i.v. in mice; conditions: mouse, in vivo, iv
male rats = assay: repeated intravenous administration to male rats for 10 consecutive days; type: in vivo; conditions: intravenous, 100, 300 or 1,000 mg/kg
Description: The compounds of this invention are also characterized by low toxicity and, therefore, have a wide safety margin.

Structure (SMILES)	MIC (E. coli, NIHJ) [µg/mL]	MIC (Pr. vulgaris, 08601) [µg/mL]	MIC (Ps. aeruginosa, 32104) [µg/mL]	MIC (Ps. aeruginosa, 32121) [µg/mL]	MIC (Ps. aeruginosa, 32234) [µg/mL]	MIC (Ps. putida, IID 5121) [µg/mL]	MIC (S. aureus, 209P) [µg/mL]	MIC (Ser. marcescens, 10104) [µg/mL]	LD50 [1] [mg/kg]	body weight, clinical examinations, weight of various organs and histological findings (male rats)
CO/N=C(\C(=O)N[C@@H]1C(=O)N2C(C(=O)O)=C(COC(C)=O)CS[C@H]12)c1csc(N)n1 [Cefotaxime, Sodium 7β-[2-(2-aminothiazol-4-yl)-2-methoxyiminoacetamido]-3-acetoxymethyl-3-cephem-4-carboxylate (syn isomer), reference compound]	< 0.1	< 0.1	25	12.5	12.5	50	3.13	0.39		
CO/N=C(\C(=O)N[C@@H]1C(=O)N2C(C(=O)[O-])=C(C[n+]3ccc(-n4ccnc4)cc3)CS[C@H]12)c1csc(N)n1 [Compound A, 7β-[2-(2-Aminothiazol-4-yl)-2-methoxyiminoacetamido]-3-[4-(imidazol-1-yl)-1-pyridinio]methyl-3-cephem-4-carboxylate trihydrochloride (syn isomer)]	< 0.1	< 0.1	1.56	1.56	1.56	1.56	0.39	< 0.1	2000 to 4000	
CO/N=C(\C(=O)N[C@@H]1C(=O)N2C(C(=O)[O-])=C(C[n+]3ccc(-n4cncn4)cc3)CS[C@H]12)c1csc(N)n1 [Compound B, 7β-[2-(2-Aminothiazol-4-yl)-2-methoxyiminoacetamido]-3-[4-(1,2,4-triazol-1-yl)-1-pyridinio]methyl-3-cephem-4-carboxylate dihydrochloride (syn isomer)]	< 0.1	< 0.1	1.56	0.78	0.78	6.25	0.78	< 0.1		
CO/N=C(\C(=O)N[C@@H]1C(=O)N2C(C(=O)[O-])=C(C[n+]3ccc(-c4ncc[nH]4)cc3)CS[C@H]12)c1csc(N)n1 [Compound C, 7β-[2-(2-Aminothiazol-4-yl)-2-methoxyiminoacetamido]-3-[4-(imidazol-2-yl)-1-pyridinio]methyl-3-cephem-4-carboxylate trihydrochloride (syn isomer)]	< 0.1	< 0.1	25	12.5	1.56	12.5	0.78	< 0.1		
CO/N=C(\C(=O)N[C@@H]1C(=O)N2C(C(=O)[O-])=C(C[n+]3ccc(-c4ncco4)cc3)CS[C@H]12)c1csc(N)n1 [Compound D, 7β-[2-(2-Aminothiazol-4-yl)-2-methoxyiminoacetamido]-3-[4-(oxazol-2-yl)-1-pyridinio]methyl-3-cephem-4-carboxylate (syn isomer)]	< 0.1	< 0.1	3.13 (≈ 5.78 µM)	1.56 (≈ 2.88 µM)	1.56 (≈ 2.88 µM)	3.13 (≈ 5.78 µM)	0.78 (≈ 1.44 µM)	< 0.1	> 4000	
CO/N=C(\C(=O)N[C@@H]1C(=O)N2C(C(=O)[O-])=C(C[n+]3ccc(-c4cnco4)cc3)CS[C@H]12)c1csc(N)n1 [Compound E, 7β-[2-(2-Aminothiazol-4-yl)-2-methoxyiminoacetamido]-3-[4-(oxazol-5-yl)-1-pyridinio]methyl-3-cephem-4-carboxylate (syn isomer)]	< 0.1	< 0.1	1.56 (≈ 2.88 µM)	0.78 (≈ 1.44 µM)	0.78 (≈ 1.44 µM)	3.13 (≈ 5.78 µM)	0.39 (≈ 0.72 µM)	< 0.1	> 4000	no abnormality were observed
CO/N=C(\C(=O)N[C@@H]1C(=O)N2C(C(=O)[O-])=C(C[n+]3ccc(-c4nnco4)cc3)CS[C@H]12)c1csc(N)n1 [Compound F, 7β-[2-(2-Aminothiazol-4-yl)-2-methoxyiminoacetamido]-3-[4-(1,3,4-oxadiazol-2-yl)-1-pyridinio]-methyl-3-cephem-4-carboxylate (syn isomer)]	< 0.1	0.1 (≈ 0.184 µM)	0.78 (≈ 1.44 µM)	0.78 (≈ 1.44 µM)	0.78 (≈ 1.44 µM)	1.56 (≈ 2.88 µM)	0.39 (≈ 0.719 µM)	< 0.1	> 4000	
CO/N=C(\C(=O)N[C@@H]1C(=O)N2C(C(=O)[O-])=C(C[n+]3cccc(-c4cnco4)c3)CS[C@H]12)c1csc(N)n1 [Compound G, 7β-[2-(2-Aminothiazol-4-yl)-2-methoxyiminoacetamido]-3-[3-(oxazol-5-yl)-1-pyridinio]methyl-3-cephem-4-carboxylate (syn isomer)]	< 0.1	0.1 (≈ 0.185 µM)	3.13 (≈ 5.78 µM)	1.56 (≈ 2.88 µM)	1.56 (≈ 2.88 µM)	12.5 (≈ 23.1 µM)	0.39 (≈ 0.72 µM)	< 0.1		
CO/N=C(\C(=O)N[C@@H]1C(=O)N2C(C(=O)[O-])=C(C[n+]3ccc(-c4csnn4)cc3)CS[C@H]12)c1csc(N)n1 [Compound H, 7β-[2-(2-Aminothiazol-4-yl)-2-methoxyiminoacetamido]-3-[4-(1,2,3-thiadiazol-4-yl)-1-pyridinio]methyl-3-cephem-4-carboxylate dihydrochloride (syn isomer)]	< 0.1	< 0.1	1.56	1.56	0.78	12.5	0.39	< 0.1		
